“Also recorded” adds a separate entry of the source.
Test system: Cln3^Δex7/8 mice
Test: Autofluorescent storage material (ASM) in brain of Cln3^Δex7/8 mice
Format: in vivo, mouse
Conditions: 16 weeks; for auto florescent storage material: LM11A-31 0.6 mg/mL in drinking water
Procedure: FIG. 16. Effects of treatment with LM11A-31 on auto florescent storage material. […] Upon sacrifice, one hemisphere of brain was sectioned at 50 microns on a vibratome; DAB staining immunohistochemistry was then performed using anti-GFAP (Dako, Z0334; 1:5000), anti-CD68 (AbD Serotec, MCA1957; 1:2000), anti-rabbit biotinylated (Vector Labs. BA-1000 1:1000), and anti-rat (Vector Labs, BA-9400 1:1000). Sections were imaged and analyzed using an Aperio Digital Pathology Slide Scanner (AT2) and associated software. The flash-frozen brain was sectioned into 16 μm slices and placed on slides. Slides were post-fixed for 20 minutes in chilled 10% neutral buffered formalin (NBF) and underwent serial ethanol dehydration. To quantify accumulation of autofluorescent storage material, DAPI was applied to slides and coverslipped with aqueous mounting media (Dako Faramount, Agilent, S302580-2). Sections were imaged using a Nikon NiE microscope and associated software. […] Nested one-way ANOVA. Mean±S.E.M. Sidak's multiple comparisons test. Compared to the wild type vehicle treated group. #p<0.05, ##p<0.01, ###p<0.001, ####p<0.0001. Compared to mutant vehicle treated group. *p<0.05, **p<0.01, ***p<0.001, ****p<0.0001. Scale bar=100 μm.
Since LM11A-31 reduced lysosomal pathology and increased lysosomal function in cell models of diverse lysosomal storage disorders, we asked whether treatment with LM11A-31 could reduce histopathological markers of disease severity in animal models of CLN3-Batten disease. […] Sections were imaged and analyzed using an Aperio Digital Pathology Slide Scanner (AT2) and associated software. […] To quantify accumulation of autofluorescent storage material, DAPI was applied to slides and coverslipped with aqueous mounting media (Dako Faramount, Agilent, S302580-2). […]
Specific experimental details are included in figure legends. […] Body weight was measured at 4, 6, 8, 12, and 16 weeks of age. […]

| Compound | auto florescent storage material (S1BF, CA3, or motor cortex) | auto florescent storage material (VPM/VPL and visual cortex) | accumulation of autofluorescent storage material (ASM) (semaglutide 2.571 μg/mouse, 25.71 μg/mouse s.c. three times a week, S1BF, CA3, VPM/VPL) |
| --- | --- | --- | --- |
| CC[C@H](C)[C@H](N)C(=O)NCCN1CCOCC1 [LM11A-31, N-[2-(morpholin-4-yl)ethyl]-L-isoleucinamide] | did not decrease | reduced ASM to levels that were not statistically distinguishable from wild type; also recorded: slight decrease | – |
| semaglutide | – | – | had no significant effect |
